From publication PMC7613998, “Development of selective inhibitors of phosphatidylinositol 3-kinase C2α” (Nature Chemical Biology, 2022)

How the values were obtained:
Experiment in all cases: biochemical
Parameters in all cases: SelectScreen Z'-LYTE purified kinase panel, per cent inhibition, mean of two points
PDK1 = target: T1, PDK1 (Homo sapiens, UniProt O15530); settings: (μM)=100
T1 construct: gene PDPK1
T1 sequence (O15530 1-556): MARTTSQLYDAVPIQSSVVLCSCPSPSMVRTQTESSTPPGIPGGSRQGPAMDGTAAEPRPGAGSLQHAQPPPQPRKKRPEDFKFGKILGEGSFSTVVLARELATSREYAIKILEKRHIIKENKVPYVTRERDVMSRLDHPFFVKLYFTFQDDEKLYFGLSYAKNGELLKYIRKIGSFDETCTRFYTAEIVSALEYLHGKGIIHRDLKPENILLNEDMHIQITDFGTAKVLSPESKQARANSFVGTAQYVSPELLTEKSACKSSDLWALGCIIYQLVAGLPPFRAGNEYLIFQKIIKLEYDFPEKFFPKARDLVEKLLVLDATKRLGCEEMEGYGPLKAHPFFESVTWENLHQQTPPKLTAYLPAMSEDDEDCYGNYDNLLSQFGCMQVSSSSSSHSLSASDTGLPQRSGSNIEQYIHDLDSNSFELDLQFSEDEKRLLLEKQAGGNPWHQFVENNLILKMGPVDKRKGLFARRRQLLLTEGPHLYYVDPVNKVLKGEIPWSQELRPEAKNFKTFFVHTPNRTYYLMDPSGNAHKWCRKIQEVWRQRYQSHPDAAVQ

JAK3 = target: T2, JAK3 (Homo sapiens, UniProt P52333); settings: (μM)=Km app
T2 sequence (P52333 1-1124): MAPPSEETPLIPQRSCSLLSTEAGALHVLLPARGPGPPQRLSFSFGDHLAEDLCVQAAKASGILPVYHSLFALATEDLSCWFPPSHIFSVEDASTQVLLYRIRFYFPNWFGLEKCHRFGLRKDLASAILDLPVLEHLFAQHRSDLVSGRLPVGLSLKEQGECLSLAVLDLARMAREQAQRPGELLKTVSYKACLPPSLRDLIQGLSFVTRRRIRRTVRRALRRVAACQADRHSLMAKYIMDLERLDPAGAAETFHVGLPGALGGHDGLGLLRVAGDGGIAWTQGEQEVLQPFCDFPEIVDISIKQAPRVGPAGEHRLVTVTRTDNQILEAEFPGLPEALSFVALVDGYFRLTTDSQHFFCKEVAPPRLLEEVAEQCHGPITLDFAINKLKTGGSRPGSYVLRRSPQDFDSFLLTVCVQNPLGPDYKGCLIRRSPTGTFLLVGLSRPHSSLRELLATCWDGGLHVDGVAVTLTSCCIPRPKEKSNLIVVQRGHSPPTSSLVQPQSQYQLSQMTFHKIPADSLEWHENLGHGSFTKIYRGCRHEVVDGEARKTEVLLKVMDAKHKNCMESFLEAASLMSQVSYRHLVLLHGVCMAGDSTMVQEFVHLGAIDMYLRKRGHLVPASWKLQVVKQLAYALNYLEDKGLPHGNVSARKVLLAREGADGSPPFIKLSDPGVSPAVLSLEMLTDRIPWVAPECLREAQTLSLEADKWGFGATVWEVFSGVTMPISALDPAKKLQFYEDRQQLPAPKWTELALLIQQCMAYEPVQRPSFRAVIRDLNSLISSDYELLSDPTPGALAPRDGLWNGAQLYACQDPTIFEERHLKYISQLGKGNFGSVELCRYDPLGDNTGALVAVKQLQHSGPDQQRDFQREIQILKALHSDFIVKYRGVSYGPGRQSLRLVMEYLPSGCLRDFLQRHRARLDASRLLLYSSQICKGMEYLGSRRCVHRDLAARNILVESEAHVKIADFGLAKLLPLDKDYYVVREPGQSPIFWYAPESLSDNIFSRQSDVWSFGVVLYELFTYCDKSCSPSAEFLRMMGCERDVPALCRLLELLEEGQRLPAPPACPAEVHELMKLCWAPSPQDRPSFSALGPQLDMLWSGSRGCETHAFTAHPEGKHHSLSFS

FGFR2 = FGFR2 (Homo sapiens, UniProt P21802); settings: (μM)=Km app
FGFR2, sequence (P21802 whole entry): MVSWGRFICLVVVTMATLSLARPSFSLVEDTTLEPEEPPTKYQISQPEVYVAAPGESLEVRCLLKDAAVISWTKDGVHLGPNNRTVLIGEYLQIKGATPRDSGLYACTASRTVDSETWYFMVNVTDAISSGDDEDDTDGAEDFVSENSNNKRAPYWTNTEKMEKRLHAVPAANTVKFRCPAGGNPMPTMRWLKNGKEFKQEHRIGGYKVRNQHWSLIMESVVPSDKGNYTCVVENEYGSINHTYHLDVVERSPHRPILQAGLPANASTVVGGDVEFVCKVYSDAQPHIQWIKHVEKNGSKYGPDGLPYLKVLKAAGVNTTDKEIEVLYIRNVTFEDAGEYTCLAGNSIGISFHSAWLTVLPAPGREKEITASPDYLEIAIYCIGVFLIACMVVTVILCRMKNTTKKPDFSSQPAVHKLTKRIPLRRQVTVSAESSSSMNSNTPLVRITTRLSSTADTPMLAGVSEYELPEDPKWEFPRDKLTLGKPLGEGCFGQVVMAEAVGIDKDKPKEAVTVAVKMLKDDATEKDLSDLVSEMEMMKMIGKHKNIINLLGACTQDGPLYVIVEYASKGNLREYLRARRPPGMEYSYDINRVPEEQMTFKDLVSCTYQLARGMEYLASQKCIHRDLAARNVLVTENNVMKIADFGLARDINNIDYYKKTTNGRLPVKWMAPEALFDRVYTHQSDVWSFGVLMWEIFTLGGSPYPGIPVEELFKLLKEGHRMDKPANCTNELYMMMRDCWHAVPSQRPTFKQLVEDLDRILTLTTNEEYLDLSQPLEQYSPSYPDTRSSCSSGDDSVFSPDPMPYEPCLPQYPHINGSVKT

MKNK1 (MNK1) = MKNK1 (MNK1) (Homo sapiens, UniProt Q9BUB5); settings: (μM)=Km app
MKNK1 (MNK1), sequence (Q9BUB5 whole entry): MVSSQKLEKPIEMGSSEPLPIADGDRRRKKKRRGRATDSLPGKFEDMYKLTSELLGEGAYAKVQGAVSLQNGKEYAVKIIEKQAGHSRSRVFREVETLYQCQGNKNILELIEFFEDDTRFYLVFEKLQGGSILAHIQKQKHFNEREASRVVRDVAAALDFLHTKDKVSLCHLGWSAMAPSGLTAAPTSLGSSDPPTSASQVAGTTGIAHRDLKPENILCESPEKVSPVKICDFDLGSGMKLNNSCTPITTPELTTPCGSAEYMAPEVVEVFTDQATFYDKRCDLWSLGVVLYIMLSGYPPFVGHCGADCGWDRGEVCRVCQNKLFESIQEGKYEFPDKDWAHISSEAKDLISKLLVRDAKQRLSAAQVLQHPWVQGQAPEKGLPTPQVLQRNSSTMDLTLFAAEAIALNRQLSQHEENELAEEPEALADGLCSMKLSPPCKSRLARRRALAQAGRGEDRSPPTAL

AURKA (Aurora A) = target: T3, AURKA (Aurora A) (Homo sapiens, UniProt O14965); settings: (μM)=Km app
T3 sequence (O14965 1-403): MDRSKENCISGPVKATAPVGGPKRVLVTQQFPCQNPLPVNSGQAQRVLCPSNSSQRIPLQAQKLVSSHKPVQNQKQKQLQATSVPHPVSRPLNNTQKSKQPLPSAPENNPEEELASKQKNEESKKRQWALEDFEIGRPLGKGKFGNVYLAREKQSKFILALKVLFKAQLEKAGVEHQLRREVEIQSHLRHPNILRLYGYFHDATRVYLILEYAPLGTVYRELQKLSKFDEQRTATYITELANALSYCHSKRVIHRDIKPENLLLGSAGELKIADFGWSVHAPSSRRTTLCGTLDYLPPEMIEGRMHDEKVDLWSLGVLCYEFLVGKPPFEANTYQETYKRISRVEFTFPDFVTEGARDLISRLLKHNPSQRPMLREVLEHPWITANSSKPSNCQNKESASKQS

MAPK11 (p38 beta) = MAPK11 (p38 beta) (Homo sapiens, UniProt Q15759); settings: (μM)=Km app
MAPK11 (p38 beta), sequence (Q15759 whole entry): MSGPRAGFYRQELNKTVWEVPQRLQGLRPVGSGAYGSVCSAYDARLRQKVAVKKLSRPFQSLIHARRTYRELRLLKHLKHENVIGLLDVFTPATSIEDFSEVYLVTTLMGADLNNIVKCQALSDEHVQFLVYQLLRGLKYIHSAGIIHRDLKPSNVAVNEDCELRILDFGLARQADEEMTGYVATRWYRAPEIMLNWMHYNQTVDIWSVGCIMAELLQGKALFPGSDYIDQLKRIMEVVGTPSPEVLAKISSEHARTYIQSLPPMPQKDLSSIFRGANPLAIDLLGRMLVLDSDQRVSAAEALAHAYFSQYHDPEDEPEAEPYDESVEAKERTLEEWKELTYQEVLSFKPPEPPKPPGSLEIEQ

ABL1 = ABL1 (Homo sapiens, UniProt P00519); settings: (μM)=Km app
ABL1, sequence (P00519 whole entry): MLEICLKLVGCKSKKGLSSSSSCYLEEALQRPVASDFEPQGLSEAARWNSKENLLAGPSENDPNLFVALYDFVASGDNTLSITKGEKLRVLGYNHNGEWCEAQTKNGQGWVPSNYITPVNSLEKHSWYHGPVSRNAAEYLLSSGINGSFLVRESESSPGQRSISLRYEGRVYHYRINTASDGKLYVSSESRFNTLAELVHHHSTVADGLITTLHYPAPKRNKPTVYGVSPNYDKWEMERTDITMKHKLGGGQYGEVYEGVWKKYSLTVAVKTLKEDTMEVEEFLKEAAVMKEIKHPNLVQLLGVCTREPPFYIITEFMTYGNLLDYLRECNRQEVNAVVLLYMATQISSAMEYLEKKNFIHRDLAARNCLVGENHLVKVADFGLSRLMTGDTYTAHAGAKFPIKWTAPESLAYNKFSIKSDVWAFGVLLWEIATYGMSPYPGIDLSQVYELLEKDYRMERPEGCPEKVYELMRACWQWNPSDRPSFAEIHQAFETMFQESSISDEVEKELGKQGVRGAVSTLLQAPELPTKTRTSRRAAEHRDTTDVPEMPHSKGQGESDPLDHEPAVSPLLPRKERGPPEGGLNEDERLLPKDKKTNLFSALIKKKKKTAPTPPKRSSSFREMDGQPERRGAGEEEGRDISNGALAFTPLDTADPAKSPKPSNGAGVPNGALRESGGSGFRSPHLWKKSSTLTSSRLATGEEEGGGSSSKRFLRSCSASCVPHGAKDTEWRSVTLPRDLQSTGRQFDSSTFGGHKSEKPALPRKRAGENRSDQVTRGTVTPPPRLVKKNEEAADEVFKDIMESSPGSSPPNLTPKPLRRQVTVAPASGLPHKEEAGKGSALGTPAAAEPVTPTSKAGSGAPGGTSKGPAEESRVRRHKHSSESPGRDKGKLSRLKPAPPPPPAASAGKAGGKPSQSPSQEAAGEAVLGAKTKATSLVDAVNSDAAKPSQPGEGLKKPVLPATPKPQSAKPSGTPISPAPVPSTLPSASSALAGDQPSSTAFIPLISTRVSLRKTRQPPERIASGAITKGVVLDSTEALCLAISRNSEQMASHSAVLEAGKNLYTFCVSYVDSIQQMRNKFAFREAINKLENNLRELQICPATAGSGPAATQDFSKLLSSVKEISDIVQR

GSK3B (GSK3 beta) = GSK3B (GSK3 beta) (Homo sapiens, UniProt P49841); settings: (μM)=Km app
GSK3B (GSK3 beta), sequence (P49841 whole entry): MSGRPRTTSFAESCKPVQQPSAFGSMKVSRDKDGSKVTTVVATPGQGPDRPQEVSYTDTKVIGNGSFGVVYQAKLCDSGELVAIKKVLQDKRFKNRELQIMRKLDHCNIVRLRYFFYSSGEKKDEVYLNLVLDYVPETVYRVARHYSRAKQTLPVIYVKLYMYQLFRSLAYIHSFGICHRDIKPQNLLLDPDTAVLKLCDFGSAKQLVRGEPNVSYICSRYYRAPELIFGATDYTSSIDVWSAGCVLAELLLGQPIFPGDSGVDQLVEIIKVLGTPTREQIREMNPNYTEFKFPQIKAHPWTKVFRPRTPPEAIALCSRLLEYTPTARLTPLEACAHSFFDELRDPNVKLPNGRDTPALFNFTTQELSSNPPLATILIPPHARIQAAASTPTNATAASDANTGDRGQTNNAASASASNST

| SMILES | inhibition at 1 µM (PDK1) [%] | inhibition at 3 µM (PDK1) [%] | inhibition at 10 µM (PDK1) [%] | inhibition at 1 µM (JAK3) [%] | inhibition at 3 µM (JAK3) [%] | inhibition at 10 µM (JAK3) [%] | inhibition at 1 µM (FGFR2) [%] | inhibition at 3 µM (FGFR2) [%] | inhibition at 10 µM (FGFR2) [%] | inhibition at 1 µM (MKNK1 (MNK1)) [%] | inhibition at 3 µM (MKNK1 (MNK1)) [%] | inhibition at 10 µM (MKNK1 (MNK1)) [%] | inhibition at 1 µM (AURKA (Aurora A)) [%] | inhibition at 3 µM (AURKA (Aurora A)) [%] | inhibition at 10 µM (AURKA (Aurora A)) [%] | inhibition at 1 µM (MAPK11 (p38 beta)) [%] | inhibition at 3 µM (MAPK11 (p38 beta)) [%] | inhibition at 10 µM (MAPK11 (p38 beta)) [%] | inhibition at 1 µM (ABL1) [%] | inhibition at 3 µM (ABL1) [%] | also measured |
| --- | --- | --- | --- | --- | --- | --- | --- | --- | --- | --- | --- | --- | --- | --- | --- | --- | --- | --- | --- | --- | --- |
| O=C(CSc1nc2nccnc2c(=O)n1CCc1ccccc1)Nc1nccs1 [compound 1, PITCOIN1] | 8.23 | 7.27 | 6.69 | -0.818 | -2.14 | 0.865 | 1.54 | 2.27 | -1.86 | -10.5 | -9.2 | -14.3 | 0.058 | 0.515 | -0.231 | 9.02 | 8.06 | 7.22 | 2.07 | 2.45 | inhibition at 10 µM (ABL1): 1.9%; inhibition at 1 µM (GSK3B (GSK3 beta)): 2.87%; inhibition at 3 µM (GSK3B (GSK3 beta)): 1.81%; inhibition at 10 µM (GSK3B (GSK3 beta)): 2.24% |
| CS(=O)(=O)Nc1cccc(-c2csc(NC(=O)CSc3nc4nccnc4c(=O)n3CCc3ccccc3)n2)c1 [compound 3, PITCOIN3] | 9.47 | 5.91 | 10.5 | 1.86 | -1.56 | -1.58 | 6.04 | 6.91 | 3.2 | -3.26 | -7.92 | 0.613 | 5.01 | 0.816 | 0.802 | 10.5 | 8.66 | 4.91 | 1.91 | 4.06 | inhibition at 10 µM (ABL1): 4%; inhibition at 1 µM (GSK3B (GSK3 beta)): -0.953%; inhibition at 3 µM (GSK3B (GSK3 beta)): -1.98%; inhibition at 10 µM (GSK3B (GSK3 beta)): -4.59% |
